The assay deals with T1, LATS2 (Homo sapiens, UniProt Q9NRM7).
T1 sequence (Q9NRM7 1-1088): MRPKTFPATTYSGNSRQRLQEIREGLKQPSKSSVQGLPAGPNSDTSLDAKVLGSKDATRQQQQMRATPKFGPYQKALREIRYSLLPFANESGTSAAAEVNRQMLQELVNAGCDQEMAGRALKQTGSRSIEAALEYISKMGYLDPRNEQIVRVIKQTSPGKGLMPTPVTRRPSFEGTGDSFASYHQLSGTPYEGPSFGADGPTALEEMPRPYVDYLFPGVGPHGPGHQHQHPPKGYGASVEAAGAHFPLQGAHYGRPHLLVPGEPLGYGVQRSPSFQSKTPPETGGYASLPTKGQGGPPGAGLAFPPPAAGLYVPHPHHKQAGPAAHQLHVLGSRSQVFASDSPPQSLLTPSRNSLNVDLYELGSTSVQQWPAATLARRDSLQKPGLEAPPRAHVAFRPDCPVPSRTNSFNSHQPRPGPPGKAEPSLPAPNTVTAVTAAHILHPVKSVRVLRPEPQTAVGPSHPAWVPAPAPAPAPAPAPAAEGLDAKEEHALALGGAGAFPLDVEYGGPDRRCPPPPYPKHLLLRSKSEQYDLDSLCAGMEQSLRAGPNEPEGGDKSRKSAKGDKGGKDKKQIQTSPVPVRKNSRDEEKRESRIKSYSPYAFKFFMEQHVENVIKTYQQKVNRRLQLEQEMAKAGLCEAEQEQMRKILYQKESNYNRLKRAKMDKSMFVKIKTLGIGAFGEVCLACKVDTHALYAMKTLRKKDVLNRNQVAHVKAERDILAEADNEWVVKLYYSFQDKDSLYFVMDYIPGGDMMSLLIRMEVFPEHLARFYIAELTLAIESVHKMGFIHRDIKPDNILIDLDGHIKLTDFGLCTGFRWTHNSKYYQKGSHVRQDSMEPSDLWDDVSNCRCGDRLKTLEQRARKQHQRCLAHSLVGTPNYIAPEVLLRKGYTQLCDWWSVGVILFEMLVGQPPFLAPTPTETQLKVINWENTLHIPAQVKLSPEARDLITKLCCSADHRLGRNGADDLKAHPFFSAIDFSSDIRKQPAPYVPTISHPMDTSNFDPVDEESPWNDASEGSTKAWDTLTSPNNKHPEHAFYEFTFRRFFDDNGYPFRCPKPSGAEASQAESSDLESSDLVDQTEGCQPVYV
The experiment in a line: RBC HotSpot kinase assay (33P-ATP, P81 filter-binding), LATS2. The assay is classed as biochemical. The following applies: read-out: LATS2 IC50. The gist of the method: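 Radiometric 33P-ATP kinase reaction in 20 mM Hepes pH 7.5, 10 mM MgCl2, 1 mM EGTA, 0.01% Brij35, 0.02 mg/ml BSA, 0.1 mM Na3VO4, 2 mM DTT, 1% DMSO. Compound preincubated with kinase and substrate 20 min, then 2 h at room temperature; P81 filter-binding read-out. IC50 (nM) from 10-point singlet curves.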

Where [1] appears, read: Table 28, biochemical kinase assay.
Where [2] appears, read: Table 32, biochemical kinase assay.

This passage reports IC50 results from patent US20250361230A1, “LATS Inhibitors and Uses Thereof” (The USA, as Represented by the Secretary, Dept. of Heath …, priority 2022, published 2025).

Where two headings read alike, the source gives them in different places.

The IC50 is the point on the concentration scale where inhibition reaches its midpoint. With `Cc1cc(-c2ccnc3[nH]cc(F)c23)cc(F)c1[C@@]1(O)[C@H](C)CN(C(=O)[C@@H](CO)N(C)C)C[C@@H]1C` [Compound 313, (R)-2-(dimethylamino)-1-((3S,4S,5R)-4-(2-fluoro-4-(3-fluoro-1H-pyrrolo[2,3-b]pyridin-4-yl)-6-methylphenyl)-4-hydroxy-3,5-dimethylpiperidin-1-yl)-3-hydroxypropan-1-one], the IC50 under setting [1] came out at 1.6 nM.
For `OC1(c2ccc(-c3ccnc4[nH]cc(F)c34)cc2)CC2(CNC2)C1` [Compound 319, 6-(4-(3-fluoro-1H-pyrrolo[2,3-b]pyridin-4-yl)phenyl)-2-azaspiro[3.3]heptan-6-ol], the IC50 under setting [1] worked out at 29.3 nM.
Turning to `NCC(O)(c1ccc(Cl)cc1)c1ccc(-c2ccnc3[nH]ccc23)cc1` (stereo not shown) [Compound 1001, 1-(4-(1H-pyrrolo[2,3-b]pyridin-4-yl)phenyl)-2-amino-1-(4-chlorophenyl)ethan-1-ol], the IC50 under setting [2] stood at 2.1 nM.
Same read-out and setting: in the case of `NCC(O)(c1ccc(Cl)cc1)c1ccc(-c2ccnc3[nH]cc(F)c23)cc1` (stereo not shown) [Compound 1002, 2-amino-1-(4-chlorophenyl)-1-(4-(3-fluoro-1H-pyrrolo[2,3-b]pyridin-4-yl)phenyl)ethan-1-ol] it was 11.1 nM; in that of `COC(=O)c1c[nH]c2nccc(-c3ccc(C(O)(CN)c4ccc(Cl)cc4)cc3)c12` (stereo not shown) [Compound 1004, Methyl 4-(4-(2-amino-1-(4-chlorophenyl)-1-hydroxyethyl)phenyl)-1H-pyrrolo[2,3-b]pyridine-3-carboxylate], 5.3 nM.
The same measure, in the same setting: in the case of `NCC(O)(c1ccc(Cl)cc1)c1ccc(-c2ccnc3[nH]cc(Br)c23)cc1` (stereo not shown) [Compound 1005, 2-amino-1-(4-(3-bromo-1H-pyrrolo[2,3-b]pyridin-4-yl)phenyl)-1-(4-chlorophenyl)ethan-1-ol] it was 8.9 nM.
As for `NCC(O)(c1ccc(Cl)cc1)c1ccc(-c2ccnc3[nH]cc(-c4ccccc4)c23)cc1` (stereo not shown) [Compound 1006, 2-amino-1-(4-chlorophenyl)-1-(4-(3-phenyl-1H-pyrrolo[2,3-b]pyridin-4-yl)phenyl)ethan-1-ol], the IC50 under setting [2] came out at 20 nM.
Same read-out and setting: for `NCC(O)(c1ccc(Cl)cc1)c1ccc(-c2ccnc3[nH]cc(-c4cccnc4)c23)cc1` (stereo not shown) [Compound 1007, 2-amino-1-(4-chlorophenyl)-1-(4-(3-(pyridin-3-yl)-1H-pyrrolo[2,3-b]pyridin-4-yl)phenyl)ethan-1-ol] the value was 6.1 nM; for `NCC(O)(c1ccc(Cl)cc1)c1ccc(-c2ccnc3[nH]cc(Br)c23)nc1` (stereo not shown) [Compound 1011, 2-amino-1-(6-(3-bromo-1H-pyrrolo[2,3-b]pyridin-4-yl)pyridin-3-yl)-1-(4-chlorophenyl)ethan-1-ol], below 0.5 nM.
Same read-out and setting: for `NCC(=O)NCC(O)(c1ccc(Cl)cc1)c1ccc(-c2ccnc3[nH]cc(Cl)c23)cc1` (stereo not shown) [Compound 1021, 2-amino-N-(2-(4-(3-chloro-1H-pyrrolo[2,3-b]pyridin-4-yl)phenyl)-2-(4-chlorophenyl)-2-hydroxyethyl) acetamide] the value was 1.6 nM.
`Cc1cc(-c2ccnc3[nH]cc(C#N)c23)cc(F)c1[C@@]1(O)[C@H](C)CN(C2CCS(=O)(=O)CC2)C[C@@H]1C` [Compound 2002, 4-(4-((3S,4s,5R)-1-(1,1-dioxidotetrahydro-2H-thiopyran-4-yl)-4-hydroxy-3,5-dimethylpiperidin-4-yl)-3-fluoro-5-methylphenyl)-1H-pyrrolo[2,3-b]pyridine-3-carbonitrile]: for the setting “biochemical kinase inhibition”, the IC50 came to 4.6 nM.
Still for that read-out and setting: for `Cc1cc(-c2ccnc3[nH]cc(C#N)c23)cc(F)c1[C@@]1(O)[C@H](C)CN(C(=O)CN)C[C@@H]1C` [Compound 2004, 4-(3-fluoro-4-((3S,4s,5R)-1-glycyl-4-hydroxy-3,5-dimethylpiperidin-4-yl)-5-methylphenyl)-1H-pyrrolo[2,3-b]pyridine-3-carbonitrile] the value was 2 nM; for `Cc1cc(-c2ccnc3[nH]cc(C#N)c23)ccc1[C@@]1(O)[C@H](C)CN(C(=O)CN)C[C@@H]1C` [Compound 2005, 4-(4-((3S,4s,5R)-1-glycyl-4-hydroxy-3,5-dimethylpiperidin-4-yl)-3-methylphenyl)-1H-pyrrolo[2,3-b]pyridine-3-carbonitrile], 1.2 nM; for `Cc1cc(-c2ccnc3[nH]cc(C#N)c23)cc(F)c1[C@@]1(O)[C@H](C)CN(C(=O)[C@H](N)CO)C[C@@H]1C` [Compound 2007, 4-(4-((3S,4S,5R)-1-(D-seryl)-4-hydroxy-3,5-dimethylpiperidin-4-yl)-3-fluoro-5-methylphenyl)-1H-pyrrolo[2,3-b]pyridine-3-carbonitrile], 5.3 nM.
Same read-out and setting: for `Cc1cc(-c2ccnc3[nH]cc(C#N)c23)cc(F)c1[C@@]1(O)[C@H](C)CN(C(=O)[C@](C)(N)CO)C[C@@H]1C` [Compound 2008, 4-(4-((3S,4s,5R)-1-(2-amino-3-hydroxy-2-methylpropanoyl)-4-hydroxy-3,5-dimethylpiperidin-4-yl)-3-fluoro-5-methylphenyl)-1H-pyrrolo[2,3-b]pyridine-3-carbonitrile] the value was 5.5 nM.
On the same count and under the same terms, for `Cc1cc(-c2ccnc3[nH]cc(C#N)c23)cc(F)c1[C@@]1(O)[C@H](C)CN(C(=O)[C@H](C)N)C[C@@H]1C` [Compound 2011, 4-(4-((3S,4R,5R)-1-(L-alanyl)-4-hydroxy-3,5-dimethylpiperidin-4-yl)-3-fluoro-5-methylphenyl)-1H-pyrrolo[2,3-b]pyridine-3-carbonitrile] the value was 16 nM; for `CNCC(=O)N1C[C@@H](C)[C@](O)(c2c(C)cc(-c3ccnc4[nH]cc(C#N)c34)cc2F)[C@@H](C)C1` [Compound 2012, 4-(3-fluoro-4-((3S,4s,5R)-4-hydroxy-3,5-dimethyl-1-(methylglycyl)piperidin-4-yl)-5-methylphenyl)-1H-pyrrolo[2,3-b]pyridine-3-carbonitrile], 2.9 nM; for `Cc1cc(-c2ccnc3[nH]cc(C#N)c23)cc(F)c1[C@@]1(O)[C@H](C)CN(C(=O)CNCC(F)(F)F)C[C@@H]1C` [Compound 2014, 4-(3-fluoro-4-((3S,4s,5R)-4-hydroxy-3,5-dimethyl-1-((2,2,2-trifluoroethyl)glycyl)piperidin-4-yl)-5-methylphenyl)-1H-pyrrolo[2,3-b]pyridine-3-carbonitrile], 6 nM.
Consider `Cc1cc(-c2ccnc3[nH]cc(C#N)c23)cc(F)c1[C@@]1(O)[C@H](C)CN(C(=O)[C@@H](C)N)C[C@@H]1C` [Compound 2015, 4-(4-((3S,4S,5R)-1-(D-alanyl)-4-hydroxy-3,5-dimethylpiperidin-4-yl)-3-fluoro-5-methylphenyl)-1H-pyrrolo[2,3-b]pyridine-3-carbonitrile], for which the IC50 (biochemical kinase inhibition) was 2 nM.
Still for that read-out and setting: in the case of `Cc1cc(-c2ccnc3[nH]cc(C#N)c23)cc(F)c1[C@@]1(O)[C@H](C)CN(C(=O)C(N)C(F)(F)F)C[C@@H]1C` (stereo partly drawn) [Compound 2017, 4-(4-((3S,4s,5R)-1-(2-amino-3,3,3-trifluoropropanoyl)-4-hydroxy-3,5-dimethylpiperidin-4-yl)-3-fluoro-5-methylphenyl)-1H-pyrrolo[2,3-b]pyridine-3-carbonitrile] it was 6.9 nM.
Take `Cc1cc(-c2ccnc3[nH]cc(C#N)c23)cc(F)c1[C@@]1(O)[C@H](C)CN(C(=O)[C@H](CO)N(C)C)C[C@@H]1C` [Compound 2023, 4-(4-((3S,4R,5R)-1-(dimethyl-L-seryl)-4-hydroxy-3,5-dimethylpiperidin-4-yl)-3-fluoro-5-methylphenyl)-1H-pyrrolo[2,3-b]pyridine-3-carbonitrile]: the IC50 (biochemical kinase inhibition) stood at 2.9 nM.
Same read-out and setting: for `Cc1cc(-c2ccnc3[nH]cc(C#N)c23)cc(F)c1[C@@]1(O)[C@H](C)CNC[C@@H]1C` [Compound 2024, 4-(3-fluoro-4-((3S,4s,5R)-4-hydroxy-3,5-dimethylpiperidin-4-yl)-5-methylphenyl)-1H-pyrrolo[2,3-b]pyridine-3-carbonitrile] the value was 4.2 nM.
